Holding throughout (experiment): [32P] S1P Binding Assay
Common to all, as to conditions: pH 7.5; 4 °C

Test [1] has as its target T1, Sphingosine 1-phosphate receptor 4 (Homo sapiens, UniProt O95977).
T1 sequence (O95977 whole entry): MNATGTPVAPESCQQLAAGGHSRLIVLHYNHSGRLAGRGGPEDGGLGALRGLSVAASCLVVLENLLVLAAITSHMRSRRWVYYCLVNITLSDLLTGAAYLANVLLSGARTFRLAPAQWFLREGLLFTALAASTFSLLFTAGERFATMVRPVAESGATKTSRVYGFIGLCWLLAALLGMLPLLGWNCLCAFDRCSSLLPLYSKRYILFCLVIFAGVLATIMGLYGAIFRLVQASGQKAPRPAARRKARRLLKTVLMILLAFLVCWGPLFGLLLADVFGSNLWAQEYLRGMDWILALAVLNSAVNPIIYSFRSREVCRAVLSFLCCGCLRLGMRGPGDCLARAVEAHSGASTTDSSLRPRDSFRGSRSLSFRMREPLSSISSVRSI

The target in test [2] is Sphingosine 1-phosphate receptor 1 (Homo sapiens, UniProt P21453).
Test [3] has as its target Sphingosine 1-phosphate receptor 3 (Homo sapiens, UniProt Q99500).

We go through four compounds from BindingDB's records for doi:10.1016/j.bmc.2004.10.008 (Mitsubishi Pharma, 2005).

Sequence of Sphingosine 1-phosphate receptor 3 (Q99500 whole entry): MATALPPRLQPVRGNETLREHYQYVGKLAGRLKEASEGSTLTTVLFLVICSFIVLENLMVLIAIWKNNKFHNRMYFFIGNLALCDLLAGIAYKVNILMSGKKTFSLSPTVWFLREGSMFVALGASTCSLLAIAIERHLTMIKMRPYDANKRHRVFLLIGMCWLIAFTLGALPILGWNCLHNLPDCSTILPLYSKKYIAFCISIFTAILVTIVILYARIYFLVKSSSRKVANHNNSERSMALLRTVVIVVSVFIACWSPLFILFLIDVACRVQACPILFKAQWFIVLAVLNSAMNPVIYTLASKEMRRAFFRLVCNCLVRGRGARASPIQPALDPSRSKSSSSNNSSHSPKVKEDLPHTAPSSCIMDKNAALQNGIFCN
Sequence of Sphingosine 1-phosphate receptor 1 (P21453 whole entry): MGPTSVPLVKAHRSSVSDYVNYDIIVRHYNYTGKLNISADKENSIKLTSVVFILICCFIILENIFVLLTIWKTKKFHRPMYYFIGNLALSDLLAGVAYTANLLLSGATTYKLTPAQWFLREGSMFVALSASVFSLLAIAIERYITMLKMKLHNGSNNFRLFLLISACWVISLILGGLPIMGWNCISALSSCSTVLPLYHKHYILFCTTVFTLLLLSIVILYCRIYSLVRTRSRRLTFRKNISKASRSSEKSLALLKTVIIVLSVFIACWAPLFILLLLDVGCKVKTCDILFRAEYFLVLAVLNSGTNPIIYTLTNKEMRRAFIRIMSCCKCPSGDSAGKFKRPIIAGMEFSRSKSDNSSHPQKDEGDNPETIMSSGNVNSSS

`CCCCCCCCc1ccc(CC[C@@](N)(CO)COP(=O)(O)O)cc1`: in test [1], the Ki (usually the equilibrium dissociation constant of an inhibitor or competing ligand from its target) was determined as 105 nM.

`CCCCCCCCc1ccc(CC[C@](N)(CO)COP(=O)(O)O)cc1` returned a Ki in test [1] of 23 nM.

For `CCCCCCCCc1ccc(CCC(N)(CO)COP(=O)(O)O)cc1` (stereo unspecified) [{2-amino-3-hydroxy-2-[2-(4-octylphenyl)ethyl]propoxy}phosphonic acid], the Ki in test [1] was 37 nM.

As to `CCCCCCCCCCCCC/C=C\C(O)C(N)COP(=O)(O)O` (stereo unspecified) [{[(4Z)-2-amino-3-hydroxyoctadec-4-en-1-yl]oxy}phosphonic acid], the Ki in test [2] was determined as 1.2 nM; in test [1], 2.7 nM; in test [3], 5.4 nM.
